Data published in patent US20060069132A1, “Azolecarboxamide herbicides” (priority 2004, published 2006).
Read-outs that look alike come from different tables or passages of the source.

Experiments:
[1] = tested on: Surinam grass; test: Test C pre-/postemergence herbicide test; type: in vivo, Urochloa decumbens; settings: for Surinam Grass plant response rating: 500 g ai/ha
How it was run: (§1)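 Visual injury scores run from 0 (no effect) to 100 (complete control), assessed relative to untreated controls 12 to 14 days after treatment in the greenhouse. Chemicals were formulated in a non-phytotoxic solvent mixture with surfactant and applied to soil after planting or to emerged plants at the 1- to 4-leaf stage.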

[2] = tested on: morningglory; test: Test A pre-/postemergence herbicide test; type: in vivo, Ipomoea spp.; settings: for pest or weed control at 500 g/ha / pest or weed control at 2000 g/ha: Ipomoea, 240 h
How it was run: (§2)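 Pre: seeded sandy loam, directed soil spray, compound in non-phytotoxic solvent + surfactant. Post: 1–2-leaf plants (2–10 cm), sprayed to runoff. Greenhouse ~10 d; visual injury vs untreated, 0–100 scale.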

[3] = tested on: bermudagrass; test: Test C pre-/postemergence herbicide test; type: in vivo, Cynodon dactylon; settings: for Bermudagrass plant response rating: Preemergence
How it was run: as §1

[4] = tested on: cocklebur; test: Test C pre-/postemergence herbicide test; type: in vivo, Xanthium strumarium; settings: for Cocklebur plant response rating: Preemergence
How it was run: as §1

[5] = tested on: goosegrass; test: Test C pre-/postemergence herbicide test; type: in vivo, Eleusine indica; settings: for Goosegrass plant response rating: 500 g ai/ha
How it was run: as §1

[6] = tested on: soybean; test: Test C pre-/postemergence herbicide test; type: in vivo, Glycine max; settings: for Soybean plant response rating: 500 g ai/ha
How it was run: as §1

[7] = tested on: velvetleaf; test: Test A pre-/postemergence herbicide test; type: in vivo, Abutilon theophrasti
How it was run: as §2

[8] = tested on: johnsongrass; test: Test C pre-/postemergence herbicide test; type: in vivo, Sorghum halepense; settings: for Johnsongrass plant response rating: 500 g ai/ha
How it was run: as §1

[9] = tested on: pigweed; test: Test C pre-/postemergence herbicide test; type: in vivo, Amaranthus retroflexus; settings: for Pigweed plant response rating: 500 g ai/ha
How it was run: as §1

[10] = 125 g ai/ha, scale 0 (no effect) to 100 (complete control), visual, 12 to 14 days, preemergence
[11] = Preemergence, scale 0 to 100, 0 no effect, 100 complete control
[12] = Postemergence, 500 g ai/ha, 0 to 100 scale, 0 no effect, 100 complete control
[13] = Postemergence, 2000 g ai/ha, 0 to 100 scale, 0 no effect, 100 complete control
[14] = Preemergence, 500 g ai/ha, visual rating, 0 to 100 scale (0 no effect, 100 complete control)
[15] = Preemergence, 2000 g ai/ha, visual rating, 0 to 100 scale (0 no effect, 100 complete control)
[16] = 250 g ai/ha, scale 0 to 100 (0 no effect, 100 complete control), visual, 12 to 14 days, preemergence
[17] = 500 g ai/ha, scale 0 to 100, 0 no effect, 100 complete control
[18] = preemergence, 500 g ai/ha, visual injury, 0 to 100 scale (0 no effect, 100 complete control)
[19] = 62 g ai/ha, preemergence, scale 0 to 100

## CCn1nc(C(C)(C)C)cc1C(=O)Nc1cccc(C(=O)OCCF)c1 [Compound 82, 2-fluoroethyl 3-[[[3-(1,1-dimethylethyl)-1-ethyl-1H-pyrazol-5-yl]-carbonyl]amino]benzoate]
[1]; Postemergence, scale 0 to 100
  Surinam Grass plant response rating: 40
[1]; Urochloa decumbens, post-emergence, 312 h, Postemergence, 250 g ai/ha, scale 0 to 100, 0 no effect, 100 complete control, read-out: Plant response rating, Surinam Grass
  pest or weed control at 250 g/ha: 20%
[1]; Urochloa decumbens, post-emergence, 312 h, postemergence, 125 g ai/ha, scale 0 to 100, read-out: Plant response rating, Surinam Grass
  pest or weed control at 125 g/ha: 10%
[1]; Urochloa decumbens, post-emergence, 312 h, postemergence, 62 g ai/ha, scale 0 to 100, read-out: Plant response rating, Surinam Grass
  pest or weed control at 62 g/ha: 10%
[2]; post-emergence, Postemergence, 500 g ai/ha, 0 to 100 scale, 0 no effect, 100 complete control, read-out: Plant response rating, Morningglory
  pest or weed control at 500 g/ha: 20%
[2]; post-emergence, Postemergence, 2000 g ai/ha, 0 to 100 scale, 0 no effect, 100 complete control, read-out: Plant response rating, Morningglory
  pest or weed control at 2000 g/ha: 10%
[2]; pre-emergence, Preemergence, 500 g ai/ha, visual rating, 0 to 100 scale (0 no effect, 100 complete control), read-out: Morningglory plant response rating
  pest or weed control at 500 g/ha: 0%
[2]; pre-emergence, Preemergence, 2000 g ai/ha, 0 to 100 scale, 0 no effect, 100 complete control, read-out: Morningglory plant response rating
  pest or weed control at 2000 g/ha: 15%
[3]; Cynodon dactylon, post-emergence, 312 h, Postemergence, 250 g ai/ha, scale 0 to 100, read-out: Bermudagrass plant response rating
  pest or weed control at 250 g/ha: 0%
[3]; Cynodon dactylon, post-emergence, 312 h, Postemergence, 500 g ai/ha, scale 0 to 100, read-out: Bermudagrass plant response rating
  pest or weed control at 500 g/ha: 10%
[3]; Cynodon dactylon, post-emergence, 312 h, postemergence, 125 g ai/ha, scale 0 to 100, read-out: Plant response rating, Bermudagrass
  pest or weed control at 125 g/ha: 0%
[3]; Cynodon dactylon, post-emergence, 312 h, postemergence, 62 g ai/ha, scale 0 to 100, read-out: Plant response rating, Bermudagrass
  pest or weed control at 62 g/ha: 0%
[4]; Xanthium strumarium, post-emergence, 312 h, Postemergence, 500 g ai/ha, scale 0 to 100, read-out: Cocklebur plant response rating
  pest or weed control at 500 g/ha: 20%
[4]; Xanthium strumarium, post-emergence, 312 h, Postemergence, 250 g ai/ha, scale 0 to 100, 0 no effect, 100 complete control, read-out: Plant response rating, Cocklebur
  pest or weed control at 250 g/ha: 5%
[4]; Xanthium strumarium, post-emergence, 312 h, postemergence, 125 g ai/ha, scale 0 to 100, read-out: Plant response rating, Cocklebur
  pest or weed control at 125 g/ha: 5%
[4]; Xanthium strumarium, post-emergence, 312 h, postemergence, 62 g ai/ha, scale 0 to 100, read-out: Plant response rating, Cocklebur
  pest or weed control at 62 g/ha: 5%
[5]; Eleusine indica, post-emergence, 312 h, Postemergence, 250 g ai/ha, scale 0 to 100, 0 no effect, 100 complete control, read-out: Plant response rating, Goosegrass
  pest or weed control at 250 g/ha: 10%
[5]; Eleusine indica, post-emergence, 312 h, postemergence, 125 g ai/ha, scale 0 to 100, read-out: Plant response rating, Goosegrass
  pest or weed control at 125 g/ha: 10%
[5]; Eleusine indica, post-emergence, 312 h, postemergence, 62 g ai/ha, scale 0 to 100, read-out: Plant response rating, Goosegrass
  pest or weed control at 62 g/ha: 0%
[5]; Postemergence, scale 0 to 100
  Goosegrass plant response rating: 10
[6]; Glycine max, post-emergence, Postemergence, 250 g ai/ha, scale 0 to 100, 0 no effect, 100 complete control, read-out: Plant response rating, Soybean
  plant injury at 250 g/ha: 40%
[6]; Glycine max, post-emergence, postemergence, 125 g ai/ha, scale 0 to 100, read-out: Plant response rating, Soybean
  plant injury at 125 g/ha: 30%
[6]; Glycine max, post-emergence, postemergence, 62 g ai/ha, scale 0 to 100, read-out: Plant response rating, Soybean
  plant injury at 62 g/ha: 20%
[6]; Postemergence, scale 0 to 100
  Soybean plant response rating: 40
[7]; Abutilon theophrasti, post-emergence, 240 h, Postemergence, 2000 g ai/ha, 0 to 100 scale, 0 no effect, 100 complete control, read-out: Plant response rating, Velvetleaf
  pest or weed control at 2000 g/ha: 30%
[7]; Abutilon theophrasti, pre-emergence, 240 h, Preemergence, 500 g ai/ha, visual rating, 0 to 100 scale (0 no effect, 100 complete control), read-out: Velvetleaf plant response rating
  pest or weed control at 500 g/ha: 0%
[7]; Abutilon theophrasti, pre-emergence, 240 h, Preemergence, 2000 g ai/ha, visual rating, 0 to 100 scale (0 no effect, 100 complete control), read-out: Velvetleaf plant response rating
  pest or weed control at 2000 g/ha: 0%
[8]; Postemergence, scale 0 to 100
  Johnsongrass plant response rating: 10
[8]; Sorghum halepense, post-emergence, Postemergence, 250 g ai/ha, scale 0 to 100, 0 no effect, 100 complete control, read-out: Plant response rating, Johnsongrass
  pest or weed control at 250 g/ha: 5%
[8]; Sorghum halepense, post-emergence, postemergence, 125 g ai/ha, scale 0 to 100, read-out: Plant response rating, Johnsongrass
  pest or weed control at 125 g/ha: 0%
[8]; Sorghum halepense, post-emergence, postemergence, 62 g ai/ha, scale 0 to 100, read-out: Plant response rating, Johnsongrass
  pest or weed control at 62 g/ha: 0%
[9]; Amaranthus retroflexus, post-emergence, Postemergence, 250 g ai/ha, scale 0 to 100, 0 no effect, 100 complete control, read-out: Plant response rating, Pigweed
  pest or weed control at 250 g/ha: 100%
[9]; Amaranthus retroflexus, post-emergence, postemergence, 125 g ai/ha, scale 0 to 100, read-out: Plant response rating, Pigweed
  pest or weed control at 125 g/ha: 100%
[9]; Amaranthus retroflexus, post-emergence, postemergence, 62 g ai/ha, scale 0 to 100, read-out: Plant response rating, Pigweed
  pest or weed control at 62 g/ha: 85%
[9]; Postemergence, scale 0 to 100
  Pigweed plant response rating: 100

## CCCCOc1cccc(NC(=O)c2cc(C(C)(C)C)nn2CC)c1 [Compound 137]
[1]; 62 g ai/ha, preemergence
  Plant response rating (0 = no effect, 100 = complete control), Surinam Grass: 0
[1]; [10]
  Plant response rating, Surinam Grass: 10
[1]; [11]
  Surinam Grass plant response rating: 60
[2]; [12]
  Morningglory plant response rating: 25
[2]; [13]
  Plant response rating, Morningglory: 40
[2]; [14]
  Morningglory plant response rating: 20
[2]; [15]
  Morningglory plant response rating: 35
[3]; 62 g ai/ha, preemergence
  Plant response rating (0 = no effect, 100 = complete control), Bermudagrass: 50
[3]; [10]
  Plant response rating, Bermudagrass: 100
[3]; [16]
  Plant response rating, Bermudagrass: 100
[3]; [17]
  Bermudagrass plant response rating: 100
[4]; 62 g ai/ha, preemergence
  Plant response rating (0 = no effect, 100 = complete control), Cocklebur: 0
[4]; [10]
  Plant response rating, Cocklebur: 0
[4]; [16]
  Plant response rating, Cocklebur: 0
[4]; [17]
  Cocklebur plant response rating: 0
[5]; 62 g ai/ha, preemergence
  Plant response rating (0 = no effect, 100 = complete control), Goosegrass: 40
[5]; [10]
  Plant response rating, Goosegrass: 85
[5]; [11]
  Goosegrass plant response rating: 100
[6]; 62 g ai/ha, preemergence
  Plant response rating (0 = no effect, 100 = complete control), Soybean: 0
[6]; [10]
  Plant response rating, Soybean: 0
[6]; [11]
  Soybean plant response rating: 10
[7]; [12]
  Velvetleaf plant response rating: 60
[7]; [13]
  Plant response rating, Velvetleaf: 70
[7]; [15]
  Velvetleaf plant response rating: 35
[7]; [18]
  Velvetleaf plant response rating: 20
[8]; 62 g ai/ha, preemergence
  Plant response rating (0 = no effect, 100 = complete control), Johnsongrass: 0
[8]; [10]
  Plant response rating, Johnsongrass: 5
[8]; [11]
  Johnsongrass plant response rating: 40
[9]; 62 g ai/ha, preemergence
  Plant response rating (0 = no effect, 100 = complete control), Pigweed: 100
[9]; [10]
  Plant response rating, Pigweed: 100
[9]; [11]
  Pigweed plant response rating: 100

## CCN(CC)C(=O)c1ccnc(NC(=O)c2cc(C(C)(C)C)nn2CC)c1 [Compound 153]
[1]; [19]
  Plant response rating, Surinam Grass: 0
[1]; [10]
  Plant response rating, Surinam Grass: 0
[1]; [11]
  Surinam Grass plant response rating: 100
[2]; [12]
  Morningglory plant response rating: 35
[2]; [13]
  Plant response rating, Morningglory: 85
[2]; [14]
  Morningglory plant response rating: 10
[2]; [15]
  Morningglory plant response rating: 55
[3]; 62 g ai/ha, preemergence, scale 0 to 100, 0 no effect, 100 complete control
  Plant response rating, Bermudagrass: 70
[3]; [10]
  Plant response rating, Bermudagrass: 95
[3]; [16]
  Plant response rating, Bermudagrass: 95
[3]; [17]
  Bermudagrass plant response rating: 100
[4]; [19]
  Plant response rating, Cocklebur: 0
[4]; [10]
  Plant response rating, Cocklebur: 0
[4]; [16]
  Plant response rating, Cocklebur: 0
[4]; [17]
  Cocklebur plant response rating: 0
[5]; [19]
  Plant response rating, Goosegrass: 55
[5]; [10]
  Plant response rating, Goosegrass: 75
[5]; [11]
  Goosegrass plant response rating: 95
[6]; [19]
  Plant response rating, Soybean: 0
[6]; [10]
  Plant response rating, Soybean: 0
[6]; [11]
  Soybean plant response rating: 15
[7]; [12]
  Velvetleaf plant response rating: 40
[7]; [13]
  Plant response rating, Velvetleaf: 65
[7]; [15]
  Velvetleaf plant response rating: 80
[7]; [18]
  Velvetleaf plant response rating: 15
[8]; [19]
  Plant response rating, Johnsongrass: 0
[8]; [10]
  Plant response rating, Johnsongrass: 15
[8]; [11]
  Johnsongrass plant response rating: 85
[9]; [19]
  Plant response rating, Pigweed: 95
[9]; [10]
  Plant response rating, Pigweed: 100
[9]; [11]
  Pigweed plant response rating: 100
